Test results from PubChem BioAssay AID322 (DTP/NCI, 2004).
“And” between values parts separate entries of the source, which are not always exact repeats. Identical values can stand only once. Inconclusive results and toxic doses are left out.

Tested on: CD2F1 mice, P388/ADR leukemia ip, median survival T/C
Assay: NCI In Vivo Anticancer Drug Screen. Data for tumor model P388 Leukemia resistant to Adriamycin; NSC 123127, Developed at Scr 08 (intraperitoneal) in CD2F1 (CDF1) mice
Conditions: endpoint: median survival time, higher = longer survival
Protocol: The antitumor activity of compounds was measured in mice bearing transplantable tumors. Survival or tumor size were measured and the results are expressed as the measurement made in the treated group (T) divided by the measurement made in the vehicle treated control group (C). The tumor model used in this assay is P388 Leukemia resistant to Adriamycin; NSC 123127, Developed at Scr 08 (intraperitoneal) in CD2F1 (CDF1) mice

[1] = dose: 25.0 mg/kg/injection, schedule: Q01DX005 (ip), vehicle: Klucel (hydroxypropylcellulose) (HPC)
[2] = dose: 36.0 mg/kg/injection, schedule: Q01DX005 (ip), vehicle: Klucel (hydroxypropylcellulose) (HPC)
[3] = dose: 50.0 mg/kg/injection, schedule: Q01DX005 (ip), vehicle: Klucel (hydroxypropylcellulose) (HPC)
[4] = dose: 60.0 mg/kg/injection, schedule: Q01DX005 (ip), vehicle: Klucel (hydroxypropylcellulose) (HPC)
[5] = dose: 100.0 mg/kg/injection, schedule: Q01DX005 (ip), vehicle: Klucel (hydroxypropylcellulose) (HPC)
[6] = dose: 200.0 mg/kg/injection, schedule: Q01DX005 (ip), vehicle: Klucel (hydroxypropylcellulose) (HPC)
[7] = dose: 0.75 mg/kg/injection, schedule: Q01DX005 (ip), vehicle: saline with Tween-80
[8] = dose: 1.5 mg/kg/injection, schedule: Q01DX005 (ip), vehicle: saline with Tween-80
[9] = dose: 3.0 mg/kg/injection, schedule: Q01DX005 (ip), vehicle: saline with Tween-80

**Q.** Which T/C (dose: 25.0 mg/kg/injection, schedule: Q01DX005 (ip), vehicle: distilled water + Tween-80) does the source give for `CCOc1ccc(C(C)c2cc3c(cc2OC)OCO3)cc1` (stereo not drawn) here?
**A.** 110 % of control

**Q.** What about the T/C (dose: 50.0 mg/kg/injection, schedule: Q01DX005 (ip), vehicle: distilled water + Tween-80) of the same molecule?
**A.** 100 % of control

**Q.** And the T/C (dose: 72.0 mg/kg/injection, schedule: Q01DX005 (ip), vehicle: distilled water + Tween-80)?
**A.** 117 % of control

**Q.** And the T/C (dose: 100.0 mg/kg/injection, schedule: Q01DX005 (ip), vehicle: distilled water + Tween-80)?
**A.** 113 % of control

**Q.** And the T/C (dose: 120.0 mg/kg/injection, schedule: Q01DX005 (ip), vehicle: distilled water + Tween-80)?
**A.** 118 % of control

**Q.** And the T/C (dose: 200.0 mg/kg/injection, schedule: Q01DX005 (ip), vehicle: distilled water + Tween-80)?
**A.** 167 % of control and 184 % of control

**Q.** And the T/C (dose: 333.33 mg/kg/injection, schedule: Q01DX005 (ip), vehicle: distilled water + Tween-80)?
**A.** 165 % of control and 176 % of control

**Q.** How did the T/C (dose: 21.6 mg/kg/injection, schedule: Q01DX005 (ip), vehicle: Klucel (hydroxypropylcellulose) (HPC)) turn out when `C=C1c2cccc(O)c2C(O)=C2C(=O)[C@]3(O)C(O)=C(C(N)=O)C(=O)[C@@H](N(C)C)[C@@H]3[C@@H](O)[C@H]12` was run?
**A.** 114 % of control

**Q.** And the T/C [1]?
**A.** 109 % of control

**Q.** And the T/C [2]?
**A.** 97 % of control and 100 % of control

**Q.** What about the T/C [3] of the same molecule?
**A.** 118 % of control

**Q.** What about the T/C [4] of the same molecule?
**A.** 226 % of control and 100 % of control

**Q.** And the T/C [5]?
**A.** 99 % of control and 112 % of control

**Q.** What about the T/C (dose: 166.66 mg/kg/injection, schedule: Q01DX005 (ip), vehicle: Klucel (hydroxypropylcellulose) (HPC)) of the same molecule?
**A.** 117 % of control

**Q.** And the T/C [6]?
**A.** 119 % of control

**Q.** What does the source list for `CC1(C)N=C(N)N=C(N)N1c1ccc(CCCCc2ccc(S(=O)(=O)F)cc2Cl)c(Cl)c1`?
**A.** T/C (dose: 18.0 mg/kg/injection, schedule: Q01DX009 (ip), vehicle: saline with Tween-80): 87 % of control; T/C (dose: 27.0 mg/kg/injection, schedule: Q01DX009 (ip), vehicle: saline with Tween-80): 89 % of control and 101 % of control; T/C (dose: 40.0 mg/kg/injection, schedule: Q01DX009 (ip), vehicle: saline with Tween-80): 88 % of control and 102 % of control; T/C (dose: 60.0 mg/kg/injection, schedule: Q01DX009 (ip), vehicle: saline with Tween-80): 112 % of control; T/C (dose: 90.0 mg/kg/injection, schedule: Q01DX009 (ip), vehicle: saline with Tween-80): 91 % of control and 110 % of control; T/C (dose: 110.0 mg/kg/injection, schedule: Q01DX009 (ip), vehicle: saline with Tween-80): 115 % of control

**Q.** How did the T/C (dose: 2.2 mg/kg/injection, schedule: Q01DX001 (ip), vehicle: saline) turn out when `COc1cccc2c1C(=O)c1c(O)c3c(c(O)c1C2=O)CC(O)(C(=O)CO)CC3OC1CC(N)C(I)C(C)O1` (stereo not drawn) was run?
**A.** 98 % of control

**Q.** And the T/C (dose: 3.3 mg/kg/injection, schedule: Q01DX001 (ip), vehicle: saline)?
**A.** 99 % of control

**Q.** And the T/C (dose: 5.0 mg/kg/injection, schedule: Q01DX001 (ip), vehicle: saline)?
**A.** 108 % of control and 117 % of control

**Q.** And the T/C (dose: 7.5 mg/kg/injection, schedule: Q01DX001 (ip), vehicle: saline)?
**A.** 118 % of control

**Q.** What about the T/C (dose: 25.2 mg/kg/injection, schedule: Q01DX001 (ip), vehicle: saline) of the same molecule?
**A.** 150 % of control

**Q.** `Cc1cc(O)c2c(c1O)C(=O)C13C(=C2O)C(=O)C2C(O)C1C1C(O)C3C(=O)C3=C(O)c4c(O)cc(C)c(O)c4C(=O)C321` (stereo not drawn) was tested. Which T/C [7] did it give?
**A.** 101 % of control

**Q.** And the T/C [8]?
**A.** 117 % of control

**Q.** What about the T/C [9] of the same molecule?
**A.** 122 % of control

**Q.** What about the T/C (dose: 6.0 mg/kg/injection, schedule: Q01DX005 (ip), vehicle: saline with Tween-80) of the same molecule?
**A.** 123 % of control

**Q.** How did the T/C [7] turn out when `CCCCCCCCCCCCN1C(C)=CS/C1=C\C=C\c1scc(C)[n+]1CCCCCCCCCCCC` was run?
**A.** 123 % of control

**Q.** What about the T/C [8] of the same molecule?
**A.** 117 % of control

**Q.** What about the T/C [9] of the same molecule?
**A.** 109 % of control

**Q.** For `O=C(Nc1ccccc1)c1c(O)[nH]c(=S)[nH]c1=O`, which T/C (dose: 30.0 mg/kg/injection, schedule: Q01DX009 (ip), vehicle: saline with Tween-80) is on record?
**A.** 173 % of control

**Q.** What about the T/C (dose: 44.0 mg/kg/injection, schedule: Q01DX009 (ip), vehicle: saline with Tween-80) of the same molecule?
**A.** 181 % of control

**Q.** And the T/C (dose: 67.0 mg/kg/injection, schedule: Q01DX009 (ip), vehicle: saline with Tween-80)?
**A.** 160 % of control

**Q.** What about the T/C (dose: 75.0 mg/kg/injection, schedule: Q01DX009 (ip), vehicle: saline with Tween-80) of the same molecule?
**A.** 170 % of control

**Q.** What about the T/C (dose: 100.0 mg/kg/injection, schedule: Q01DX009 (ip), vehicle: saline with Tween-80) of the same molecule?
**A.** 173 % of control and 181 % of control

**Q.** What about the T/C (dose: 125.0 mg/kg/injection, schedule: Q01DX009 (ip), vehicle: saline with Tween-80) of the same molecule?
**A.** 195 % of control

**Q.** What about the T/C (dose: 150.0 mg/kg/injection, schedule: Q01DX009 (ip), vehicle: saline with Tween-80) of the same molecule?
**A.** 197 % of control

**Q.** For `O=C(O)CCCc1ccc(N(CCCl)CCCl)cc1`, which T/C (dose: 1.25 mg/kg/injection, schedule: Q01DX005 (ip), vehicle: saline with Tween-80) is on record?
**A.** 120 % of control

**Q.** What about the T/C (dose: 10.0 mg/kg/injection, schedule: Q01DX005 (ip), vehicle: saline with Tween-80) of the same molecule?
**A.** 205 % of control

**Q.** For `NC(N)=NS(=O)(=O)c1ccc(NCc2c3ccccc3nc3ccccc23)cc1`, which T/C (dose: 50.0 mg/kg/injection, schedule: Q04DX003 (ip), vehicle: Klucel (hydroxypropylcellulose) (HPC)) is on record?
**A.** 101 % of control

**Q.** What about the T/C (dose: 100.0 mg/kg/injection, schedule: Q04DX003 (ip), vehicle: Klucel (hydroxypropylcellulose) (HPC)) of the same molecule?
**A.** 97 % of control

**Q.** What about the T/C (dose: 200.0 mg/kg/injection, schedule: Q04DX003 (ip), vehicle: Klucel (hydroxypropylcellulose) (HPC)) of the same molecule?
**A.** 100 % of control

**Q.** What about the T/C (dose: 400.0 mg/kg/injection, schedule: Q04DX003 (ip), vehicle: Klucel (hydroxypropylcellulose) (HPC)) of the same molecule?
**A.** 87 % of control

**Q.** `CO[C@@]12[C@H](COC(N)=O)C3=C(C(=O)C(C)=C(N)C3=O)N1C[C@@H]1N[C@@H]12` was tested. Which T/C (dose: 0.5 mg/kg/injection, schedule: Q01DX009 (ip), vehicle: saline with Tween-80) did it give?
**A.** 178 % of control

**Q.** What about the T/C (dose: 1.0 mg/kg/injection, schedule: Q01DX009 (ip), vehicle: saline with Tween-80) of the same molecule?
**A.** 198 % of control and 207 % of control

**Q.** What about the T/C (dose: 2.0 mg/kg/injection, schedule: Q01DX009 (ip), vehicle: saline with Tween-80) of the same molecule?
**A.** 110 % of control and 117 % of control

**Q.** And the T/C (dose: 3.6 mg/kg/injection, schedule: Q01DX001 (ip), vehicle: saline)?
**A.** 151 % of control

**Q.** What about the T/C (dose: 3.6 mg/kg/injection, schedule: Q01DX001 (ip), vehicle: water) of the same molecule?
**A.** 154 % of control

**Q.** What about the T/C (dose: 5.4 mg/kg/injection, schedule: Q01DX001 (ip), vehicle: saline) of the same molecule?
**A.** 177 % of control

**Q.** What about the T/C (dose: 5.4 mg/kg/injection, schedule: Q01DX001 (ip), vehicle: water) of the same molecule?
**A.** 162 % of control

**Q.** And the T/C (dose: 12.0 mg/kg/injection, schedule: Q01DX001 (ip), vehicle: saline)?
**A.** 117 % of control

**Q.** What about the T/C (dose: 12.0 mg/kg/injection, schedule: Q01DX001 (ip), vehicle: water) of the same molecule?
**A.** 112 % of control

**Q.** What does the source list for `COc1cc(C)c(C2NC(=O)c3ccccc3N2)cc1C` (stereo not drawn)?
**A.** T/C [3]: 109 % of control; T/C [5]: 116 % of control; T/C [6]: 113 % of control; T/C (dose: 288.0 mg/kg/injection, schedule: Q01DX005 (ip), vehicle: Klucel (hydroxypropylcellulose) (HPC)): 158 % of control; T/C (dose: 400.0 mg/kg/injection, schedule: Q01DX005 (ip), vehicle: Klucel (hydroxypropylcellulose) (HPC)): 124 % of control; T/C (dose: 480.0 mg/kg/injection, schedule: Q01DX005 (ip), vehicle: Klucel (hydroxypropylcellulose) (HPC)): 153 % of control; T/C (dose: 800.0 mg/kg/injection, schedule: Q01DX005 (ip), vehicle: Klucel (hydroxypropylcellulose) (HPC)): 155 % of control and 206 % of control; T/C (dose: 1333.0 mg/kg/injection, schedule: Q01DX005 (ip), vehicle: Klucel (hydroxypropylcellulose) (HPC)): 207 % of control

**Q.** For `COc1cc2c(c3c1c(=O)c1ccccc1n3C)C=CC(C)(C)O2`, which T/C (dose: 12.5 mg/kg/injection, schedule: Q01DX005 (ip), vehicle: saline with Tween-80) is on record?
**A.** 115 % of control

**Q.** And the T/C (dose: 25.0 mg/kg/injection, schedule: Q01DX005 (ip), vehicle: saline with Tween-80)?
**A.** 87 % of control

**Q.** What about the T/C (dose: 50.0 mg/kg/injection, schedule: Q01DX005 (ip), vehicle: saline with Tween-80) of the same molecule?
**A.** 90 % of control

**Q.** `[N-]=[N+]=CC(=O)CCC(NC(=O)OCc1ccccc1)C(=O)OCc1ccccc1` (stereo not drawn) was tested. Which T/C (dose: 12.5 mg/kg/injection, schedule: Q01DX005 (ip), vehicle: Klucel (hydroxypropylcellulose) (HPC)) did it give?
**A.** 115 % of control

**Q.** And the T/C [1]?
**A.** 117 % of control

**Q.** And the T/C [2]?
**A.** 100 % of control

**Q.** What about the T/C [4] of the same molecule?
**A.** 112 % of control

**Q.** And the T/C [5]?
**A.** 166 % of control

**Q.** What about the T/C [6] of the same molecule?
**A.** 165 % of control

**Q.** And the T/C (dose: 278.0 mg/kg/injection, schedule: Q01DX005 (ip), vehicle: Klucel (hydroxypropylcellulose) (HPC))?
**A.** 155 % of control
